#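 Method: 48-hour compound exposure of cells in 96-well plates, five concentrations, linear interpolation of endpoints. GI50 is the concentration that inhibits growth by half.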 Calls of active or inactive are those of the source. Rule as the data show it: active = GI50 up to about 1.1 µM and inactive = higher.
# Assays:
# Test in all cases: inhibition of tumour cell growth, NCI panel, 48 h
# [1] = test system: UACC-62
# [2] = test system: SN12C
# [3] = test system: OVCAR-3
# [4] = test system: SNB-75
# [5] = test system: EKVX
# [6] = test system: HCC 2998
# [7] = test system: COLO 205
# [8] = test system: SW-620
# [9] = test system: SF-268
# [10] = test system: OVCAR-8
# [11] = test system: RPMI-8226
# [12] = test system: K562
# [13] = test system: A549
# [14] = test system: RXF 393
# [15] = test system: SK-MEL-28
# [16] = test system: HL-60
# [17] = test system: HCT-15
# [18] = test system: HCT-116
# [19] = test system: UACC-257
# [20] = test system: HOP-62
# [21] = test system: SK-MEL-5
# [22] = test system: SF-539
# [23] = test system: DLD-1
# [24] = test system: M19-MEL
# [25] = test system: SF-295
# [26] = test system: NCI-H226
# [27] = test system: 786-0
# [28] = test system: CCRF-CEM
# [29] = test system: LXFL 529
# [30] = test system: NCI-H23
# [31] = test system: UO-31
# [32] = test system: SNB-78
# [33] = test system: KM12
# [34] = test system: LOX IMVI
# [35] = test system: XF498
# [36] = test system: DMS-114
# [37] = test system: OVCAR-4
# [38] = test system: HT-29
# [39] = test system: SNB-19
# [40] = test system: DMS-273
# [41] = test system: SK-OV-3
# [42] = test system: MOLT-4
# [43] = test system: M14
# [44] = test system: TK-10
# [45] = test system: IGROV-1
# [46] = test system: SR
# [47] = test system: ACHN
# [48] = test system: OVCAR-5
# [49] = test system: SK-MEL-2
# [50] = test system: U-251
# [51] = test system: CAKI-1
# [52] = test system: KM-20L2
# [53] = test system: Malme-3M
smiles,measurement,setting,value
N#C/N=C1\NCCC(=O)N1CCc1c[nH]c2ccccc12,GI50,[1],> 100 µM (inactive)
same,GI50,[2],> 100 µM (inactive)
same,GI50,[3],> 100 µM (inactive)
same,GI50,[4],> 100 µM (inactive)
same,GI50,[5],> 100 µM (inactive)
same,GI50,[6],> 100 µM (inactive)
same,GI50,[7],> 100 µM (inactive)
same,GI50,[8],> 100 µM (inactive)
same,GI50,[9],> 100 µM (inactive)
same,GI50,[10],> 100 µM (inactive)
same,GI50,[11],> 100 µM (inactive)
same,GI50,[12],> 100 µM (inactive)
same,GI50,[13],> 100 µM (inactive)
same,GI50,[14],> 100 µM (inactive)
same,GI50,[15],> 100 µM (inactive)
same,GI50,[16],> 100 µM (inactive)
same,GI50,[17],> 100 µM
same,GI50,[18],> 100 µM (inactive)
same,GI50,[19],> 100 µM (inactive)
same,GI50,[20],> 100 µM (inactive)
same,GI50,[21],> 100 µM (inactive)
same,GI50,[22],> 100 µM (inactive)
same,GI50,[23],> 100 µM (inactive)
same,GI50,[24],> 100 µM (inactive)
same,GI50,[25],> 100 µM (inactive)
same,GI50,[26],> 100 µM (inactive)
same,GI50,[27],> 100 µM (inactive)
same,GI50,[28],> 100 µM (inactive)
same,GI50,[29],> 100 µM (inactive)
same,GI50,[30],> 100 µM (inactive)
same,GI50,[31],> 100 µM (inactive)
same,GI50,[32],> 100 µM (inactive)
same,GI50,[33],> 100 µM (inactive)
same,GI50,[34],> 100 µM (inactive)
same,GI50,[35],> 100 µM (inactive)
same,GI50,[36],> 100 µM (inactive)
same,GI50,[37],> 100 µM (inactive)
same,GI50,[38],> 100 µM (inactive)
same,GI50,[39],> 100 µM (inactive)
same,GI50,[40],> 100 µM (inactive)
same,GI50,[41],> 100 µM (inactive)
same,GI50,[42],> 100 µM (inactive)
same,GI50,[43],> 100 µM (inactive)
same,GI50,[44],> 100 µM (inactive)
same,GI50,[45],> 100 µM (inactive)
same,GI50,[46],> 100 µM (inactive)
COc1ccc2c(c1)OCCCN(C)OC2c1ccccc1 (stereo unspecified),GI50,[1],> 100 µM (inactive)
same,GI50,[2],> 100 µM (inactive)
same,GI50,[3],> 100 µM (inactive)
same,GI50,[4],> 100 µM (inactive)
same,GI50,[47],> 100 µM (inactive)
same,GI50,[5],> 100 µM (inactive)
same,GI50,[6],> 100 µM (inactive)
same,GI50,[7],> 100 µM (inactive)
same,GI50,[8],> 100 µM (inactive)
same,GI50,[9],> 100 µM (inactive)
same,GI50,[10],> 100 µM (inactive)
same,GI50,[11],> 100 µM (inactive)
same,GI50,[12],> 100 µM (inactive)
same,GI50,[13],> 100 µM (inactive)
same,GI50,[14],> 100 µM (inactive)
same,GI50,[48],> 100 µM (inactive)
same,GI50,[15],89.3 µM (inactive)
same,GI50,[17],> 100 µM
same,GI50,[18],> 100 µM (inactive)
same,GI50,[49],> 100 µM (inactive)
same,GI50,[19],> 100 µM (inactive)
same,GI50,[21],> 100 µM (inactive)
same,GI50,[22],> 100 µM (inactive)
same,GI50,[24],> 100 µM (inactive)
same,GI50,[25],> 100 µM (inactive)
same,GI50,[26],> 100 µM (inactive)
same,GI50,[27],> 100 µM (inactive)
same,GI50,[29],> 100 µM (inactive)
same,GI50,[30],> 100 µM (inactive)
same,GI50,[31],> 100 µM (inactive)
same,GI50,[50],> 100 µM (inactive)
same,GI50,[32],> 100 µM (inactive)
same,GI50,[33],> 100 µM (inactive)
same,GI50,[36],> 100 µM (inactive)
same,GI50,[38],> 100 µM (inactive)
same,GI50,[39],> 100 µM (inactive)
same,GI50,[40],> 100 µM (inactive)
same,GI50,[51],> 100 µM (inactive)
same,GI50,[52],> 100 µM (inactive)
same,GI50,[41],> 100 µM (inactive)
same,GI50,[42],> 100 µM (inactive)
same,GI50,[44],> 100 µM (inactive)
same,GI50,[45],> 100 µM (inactive)
same,GI50,[53],> 100 µM (inactive)
same,GI50,[46],> 100 µM (inactive)
